In patent publication US9179694B2, “Method and composition for enhancing milk production and milk component concentrations” (PURINA ANIMAL NUTRITION LLC, priority 2003, dated 2015):

Assay: Dry matter feed intake in sorbitol feeding trials
Type: in vivo, Holstein cows
Settings: for increase in dry matter feed intake: Pre-Partum Trial #1 (75 g/day wk −3..−1 only) versus Control Trial #1
Experimental: To determine the dry matter weight (or dry matter basis or dry basis) of a particular sample, the sample is first weighed. The weighed sample is then dried in an oven at a temperature that is adequate to drive off moisture from the sample without degrading the sample components, such as a temperature ranging from about 100° C. to about 110° C. The oven drying is continued until the weight of the dried sample remains constant, despite additional oven drying. During the pre-partum period, for all cows utilized in Example One or Example Two, the pre-partum control feed, as modified to include any sorbitol indicated above for the different trials, was placed in the feeding troughs of the different cows participating in the different trials once daily in the morning. Thereafter, these different pre-partum feeds (the pre-partum control feed, including any incorporated sorbitol dosage of a particular trial during the pre-partum period) of the different trials were lightly stirred, separately and individually, in front of the cows of the different trials three times per day during the pre-partum period to encourage additional feed ingestion by the cows. Leftover rations from the previous day's feeding were collected and weighed from each feeding trough during the pre-partum period, prior to feeding the test cows on a subsequent day. The cows of the different trials received a sufficient amount of the pre-partum to ensure at least about ten weight percent of the pre-partum feeds of the different trials remained in the feeding troughs of each trial each day of the pre-partum period, based on the amount of the different pre-partum feeds of the different trials provided at the beginning of each day. Feed refusals were measured daily during the pre-partum period, and water was supplied ad libitum. During the early post-partum period, for all cows utilized in Example One or Example Two, the first post-partum control feed, as modified to include any sorbitol indicated above for the different trials, was placed in the feeding troughs of the different cows participating in the different trials once daily in the morning. Thereafter, these first post-partum feeds (the first post-partum control feed, including any incorporated sorbitol dosage of a particular trial during the early post-partum period) of the different trials were lightly stirred, separately and individually, in front of the cows of the different trials three times per day during the early post-partum period to encourage additional feed ingestion by the cows. Leftover rations from the previous day's feeding were collected and weighed from each feeding trough during the early post-partum period, prior to feeding the test cows on a subsequent day. The cows of the different trials received a sufficient amount of the first post-partum feed to ensure at least about ten weight percent of the first post-partum feeds of the different trials remained in the feeding troughs of each trial each day of the early post-partum period, based on the amount of the different first post-partum feeds of the different trials provided at the beginning of each day. Feed refusals were measured daily during the early post-partum period, and water was supplied ad libitum. […] Thereafter, the second post-partum control feed were lightly stirred, separately and individually, in front of the cows of the different trials three times per day during the weeks +5 through +8 to encourage additional feed ingestion by the cows. Leftover rations from the previous day's feeding were collected and weighed from each feeding trough during weeks +5 through +8, prior to feeding the test cows on a subsequent day. […]

## OC[C@@H](O)[C@@H](O)[C@H](O)[C@@H](O)CO [sorbitol]
Pre-Partum Trial #1 (75/0/0 g/day in wk −3..−1/+1..+4/+5..+8), multiparious cows, weeks +1 through +8
  Dry Matter Feed Intake: 44.5 lbs/day
Pre-Partum Trial #1 (75/0/0 g/day in wk −3..−1/+1..+4/+5..+8), multiparious cows, weeks −3 through −1
  Dry Matter Feed Intake: 29.9 lbs/day
Pre-Partum Trial #1 (75/0/0 g/day in wk −3..−1/+1..+4/+5..+8), primiparious cows, weeks +1 through +8
  Dry Matter Feed Intake: 34.2 lbs/day
Pre-Partum Trial #1 (75/0/0 g/day in wk −3..−1/+1..+4/+5..+8), primiparious cows, weeks −3 through −1
  Dry Matter Feed Intake: 17.8 lbs/day
Multiparious cows, weeks +1 through +8
  increase in dry matter feed intake: +9.6%
Primiparious cows, weeks +1 through +8
  increase in dry matter feed intake: +7.9%
Pre-Partum Trial #2 (75/0/100 g/day in wk −3..−1/+1..+4/+5..+8), multiparious cows, week +1
  Dry Matter Intake: 32.7 lbs/day
Pre-Partum Trial #2 (75/0/100 g/day in wk −3..−1/+1..+4/+5..+8), multiparious cows, week +1 versus −1
  Change in Dry Matter Feed Intake: 1.97 lbs/day
Pre-Partum Trial #2 (75/0/100 g/day in wk −3..−1/+1..+4/+5..+8), multiparious cows, week +2
  Dry Matter Intake: 42.5 lbs/day
Pre-Partum Trial #2 (75/0/100 g/day in wk −3..−1/+1..+4/+5..+8), multiparious cows, week +3
  Dry Matter Intake: 46.2 lbs/day
Pre-Partum Trial #2 (75/0/100 g/day in wk −3..−1/+1..+4/+5..+8), multiparious cows, week +4
  Dry Matter Intake: 50.1 lbs/day
Pre-Partum Trial #2 (75/0/100 g/day in wk −3..−1/+1..+4/+5..+8), multiparious cows, week +5
  Dry Matter Intake: 52.4 lbs/day
Pre-Partum Trial #2 (75/0/100 g/day in wk −3..−1/+1..+4/+5..+8), multiparious cows, week +6
  Dry Matter Intake: 53.9 lbs/day
Pre-Partum Trial #2 (75/0/100 g/day in wk −3..−1/+1..+4/+5..+8), multiparious cows, week +7
  Dry Matter Intake: 56.1 lbs/day
Pre-Partum Trial #2 (75/0/100 g/day in wk −3..−1/+1..+4/+5..+8), multiparious cows, week +8
  Dry Matter Intake: 53.8 lbs/day
Pre-Partum Trial #2 (75/0/100 g/day in wk −3..−1/+1..+4/+5..+8), multiparious cows, week −1
  Dry Matter Intake: 30.7 lbs/day
Pre-Partum Trial #2 (75/0/100 g/day in wk −3..−1/+1..+4/+5..+8), multiparious cows, week −2
  Dry Matter Intake: 33.5 lbs/day
Pre-Partum Trial #2 (75/0/100 g/day in wk −3..−1/+1..+4/+5..+8), multiparious cows, week −2 versus −1
  Change in Dry Matter Feed Intake: −2.88 lbs/day
Pre-Partum Trial #2 (75/0/100 g/day in wk −3..−1/+1..+4/+5..+8), multiparious cows, week −3
  Dry Matter Intake: 30.9 lbs/day
Pre-Partum Trial #2 (75/0/100 g/day in wk −3..−1/+1..+4/+5..+8), multiparious cows, weeks +1 through +4
  Dry Matter Intake: 42.9 lbs/day
Pre-Partum Trial #2 (75/0/100 g/day in wk −3..−1/+1..+4/+5..+8), multiparious cows, weeks +1 through +8
  Dry Matter Intake: 48.4 lbs/day
Pre-Partum Trial #2 (75/0/100 g/day in wk −3..−1/+1..+4/+5..+8), multiparious cows, weeks +5 through +8
  Dry Matter Intake: 54.2 lbs/day
Pre-Partum Trial #2 (75/0/100 g/day in wk −3..−1/+1..+4/+5..+8), multiparious cows, weeks −3 through −1
  Dry Matter Intake: 31.8 lbs/day
Pre-Partum Trial #2 (75 g/day pre-partum) versus Control Trial #2, multiparious cows, pre-partum period (weeks −3 through −1)
  decrease in dry matter feed intake: 7.0%
Pre/Post Trial #1 (150/125/100 g/day in wk −3..−1/+1..+4/+5..+8), multiparious cows, week +1
  Dry Matter Intake: 36.6 lbs/day
Pre/Post Trial #1 (150/125/100 g/day in wk −3..−1/+1..+4/+5..+8), multiparious cows, week +1, two-trial comparison with Control Trial #2 (Table 22)
  Dry Matter Feed Intake: 36.7 lbs/day
Pre/Post Trial #1 (150/125/100 g/day in wk −3..−1/+1..+4/+5..+8), multiparious cows, week +1 versus −1
  Change in Dry Matter Feed Intake: 3.37 lbs/day
Pre/Post Trial #1 (150/125/100 g/day in wk −3..−1/+1..+4/+5..+8), multiparious cows, week +1 versus −1, two-trial comparison with Control Trial #2 (Table 22)
  Change in Dry Matter Feed Intake: 3.35 lbs/day
Pre/Post Trial #1 (150/125/100 g/day in wk −3..−1/+1..+4/+5..+8), multiparious cows, week +2
  Dry Matter Intake: 45.3 lbs/day
Pre/Post Trial #1 (150/125/100 g/day in wk −3..−1/+1..+4/+5..+8), multiparious cows, week +2, two-trial comparison with Control Trial #2 (Table 22)
  Dry Matter Feed Intake: 45.6 lbs/day
Pre/Post Trial #1 (150/125/100 g/day in wk −3..−1/+1..+4/+5..+8), multiparious cows, week +3
  Dry Matter Intake: 48.5 lbs/day
Pre/Post Trial #1 (150/125/100 g/day in wk −3..−1/+1..+4/+5..+8), multiparious cows, week +3, two-trial comparison with Control Trial #2 (Table 22)
  Dry Matter Feed Intake: 48.8 lbs/day
Pre/Post Trial #1 (150/125/100 g/day in wk −3..−1/+1..+4/+5..+8), multiparious cows, week +4
  Dry Matter Intake: 51.2 lbs/day
Pre/Post Trial #1 (150/125/100 g/day in wk −3..−1/+1..+4/+5..+8), multiparious cows, week +4, two-trial comparison with Control Trial #2 (Table 22)
  Dry Matter Feed Intake: 51.5 lbs/day
Pre/Post Trial #1 (150/125/100 g/day in wk −3..−1/+1..+4/+5..+8), multiparious cows, week +5
  Dry Matter Intake: 53.9 lbs/day
Pre/Post Trial #1 (150/125/100 g/day in wk −3..−1/+1..+4/+5..+8), multiparious cows, week +5, two-trial comparison with Control Trial #2 (Table 22)
  Dry Matter Feed Intake: 54.2 lbs/day
Pre/Post Trial #1 (150/125/100 g/day in wk −3..−1/+1..+4/+5..+8), multiparious cows, week +6
  Dry Matter Intake: 53.7 lbs/day
Pre/Post Trial #1 (150/125/100 g/day in wk −3..−1/+1..+4/+5..+8), multiparious cows, week +6, two-trial comparison with Control Trial #2 (Table 22)
  Dry Matter Feed Intake: 54.1 lbs/day
Pre/Post Trial #1 (150/125/100 g/day in wk −3..−1/+1..+4/+5..+8), multiparious cows, week +7
  Dry Matter Intake: 54.5 lbs/day
